# “Also recorded” adds a separate entry of the source.
# How the values were obtained:
# [1] = system: 6 Hz limbic seizures; test: 6 Hz limbic (psychomotor) seizure test; format: in vivo, CF-1 mice
# From the text: Mice not displaying limbic seizures were considered protected.
# [2] = system: mechanical allodynia; test: Sciatic nerve ligation model, mechanical allodynia; format: in vivo, rats
# Experimental: Just prior to surgery, rats are treated subcutaneously with 0.1 to 0.5 mg/kg of the long acting opiate buprenorphine. Rats are then anesthetized with pentobarbital and the depth of anesthesia monitored by their response to a tail pinch and observation of the depth of respiration. Sterile technique was used throughout the surgery.
# The upper thigh of each rat was shaved and wiped off with ethanol and betadine. A small incision was made in the skin and through the underlying muscle of the upper thigh until the sciatic nerve was exposed. The nerve was then separated from the surrounding connective tissue and slightly elevated by a pair of fine, curved forceps. Approximately ⅓ to ½ of the nerve was then tied off by passing a needle and nylon suture (7.0) through the nerve. The muscle and skin incision was then closed sutured separately with 5.0 suture and the animals were kept warm by placing on a thermostatically controlled heat blanket until they have recovered from the anesthesia. This procedure was conducted on the right side (ipsilateral) while a sham surgery was performed on the left hind leg (contralateral). The latter involves a similar procedure with the exception that the sciatic nerve on this side was only exposed and not ligated. Twelve hours post surgery, a second dose of buprenorphine was administered to minimize any discomfort from the surgical procedure. Rats were closely monitored daily for the development of infection or untoward effects of the surgery.
# After an appropriate time for recovery (e.g., 7-14 days) the animals were tested for the development of mechanical allodynia (pain response to a non-noxious stimulus). For this study, the animals placed in a bottomless plexiglass box placed on a wire mesh (¼″) platform. After a 30-60 minute acclimation period, a baseline mechanical sensitivity was determined. […] This procedure was repeated until a 50% threshold for withdrawal could be determined.
substance,measurement,setting,value
Sar-Trp-Thr-Leu-Asn-Ser-Ala-Gly-Tyr-Leu-Leu-Gly-Pro-Lys-Lys-(Lys-palm)-Lys-NH2 [NAX 5055],activity in pharmaco-resistant seizure model,[1]; 4 mg/kg,active
same,% Protection at 1 hour,"[1]; 4 mg/kg, i.p., 1 h, model not printed at tables, ED50s of same analogs called 6 Hz model",100%
same,% Protection at 2 hours,"[1]; 4 mg/kg, i.p., 2 h",100%
same,% Protection at 4 hours,"[1]; 4 mg/kg, i.p., 4 h",0%
same,potency and efficacy compared with native peptide,[1]; 6 Hz (32 mA) test,more potent and more efficacious
same,ED50 in the 6 Hz model,[1]; i.p.,0.8 mg/kg
same,dose in parentheses in Table 14 (ED50),"[1]; i.p., not labelled in table",0.8 mg/kg
same,ED50 following i.c.v. administration,"[1]; intracerebroventricular, 6 Hz (32 mA) test, FIG. 22",0.07 nmol
same,anticonvulsant activity following subcutaneous administration,"[1]; s.c., 32 mA, 6 Hz, 60 min after injection",preserved; also recorded: retained
same,potency compared with morphine,[2]; 2 mg/kg i.p. vs 2 mg/kg morphine,equi-potent
same,potency compared with gabapentin,[2]; 2 mg/kg i.p. vs 40 mg/kg gabapentin,several fold more potent
same,threshold for mechanical allodynia,"[2]; 2 mg/kg i.p., 30 min to 6 h",time-dependent increase

# Reference: patent US20180340012A1, “METHODS AND CO[…] TO IMPROVING PROPERTIES OF PHARMACOLOGICAL AGENTS TARGETING NERVOUS SYSTEM” (University of Utah Research Foundation, priority 2006, published 2018)
